# From the NIST ThermoML archive (doi:10.1016/j.jct.2015.01.003)
# Numbers after ± are expanded uncertainties.
# Experiment: excess molar enthalpy (molar enthalpy of mixing); xn = mol fraction of the nth substance listed
# Conditions: 100 kPa, Liquid, Flow calorimetry
structure (smiles),measurement,setting,value
Cc1ccccc1 [toluene] + CCCO,excess molar enthalpy,"298.15 K, x1 = 0.0503",0.0239 ± 0.00263 kcal/mol
same,excess molar enthalpy,"298.15 K, x1 = 0.0998",0.0488 ± 0.00263 kcal/mol
same,excess molar enthalpy,"298.15 K, x1 = 0.1497",0.0731 ± 0.00263 kcal/mol
same,excess molar enthalpy,"298.15 K, x1 = 0.2",0.098 ± 0.00263 kcal/mol
same,excess molar enthalpy,"298.15 K, x1 = 0.2506",0.122 ± 0.00263 kcal/mol
same,excess molar enthalpy,"298.15 K, x1 = 0.2997",0.144 ± 0.00287 kcal/mol
same,excess molar enthalpy,"298.15 K, x1 = 0.3506",0.165 ± 0.00287 kcal/mol
same,excess molar enthalpy,"298.15 K, x1 = 0.3997",0.183 ± 0.00287 kcal/mol
same,excess molar enthalpy,"298.15 K, x1 = 0.4505",0.201 ± 0.00287 kcal/mol
same,excess molar enthalpy,"298.15 K, x1 = 0.5012",0.214 ± 0.00287 kcal/mol
same,excess molar enthalpy,"298.15 K, x1 = 0.5495",0.225 ± 0.00311 kcal/mol
same,excess molar enthalpy,"298.15 K, x1 = 0.5993",0.233 ± 0.00311 kcal/mol
same,excess molar enthalpy,"298.15 K, x1 = 0.651",0.238 ± 0.00311 kcal/mol
same,excess molar enthalpy,"298.15 K, x1 = 0.6997",0.238 ± 0.00311 kcal/mol
same,excess molar enthalpy,"298.15 K, x1 = 0.7501",0.234 ± 0.00311 kcal/mol
same,excess molar enthalpy,"298.15 K, x1 = 0.7996",0.223 ± 0.00311 kcal/mol
same,excess molar enthalpy,"298.15 K, x1 = 0.8506",0.205 ± 0.00311 kcal/mol
same,excess molar enthalpy,"298.15 K, x1 = 0.9008",0.176 ± 0.00311 kcal/mol
same,excess molar enthalpy,"298.15 K, x1 = 0.9496",0.126 ± 0.00311 kcal/mol
same,excess molar enthalpy,"313.15 K, x1 = 0.0503",0.0339 ± 0.00263 kcal/mol
same,excess molar enthalpy,"313.15 K, x1 = 0.0998",0.0681 ± 0.00263 kcal/mol
same,excess molar enthalpy,"313.15 K, x1 = 0.1497",0.0994 ± 0.00287 kcal/mol
same,excess molar enthalpy,"313.15 K, x1 = 0.2001",0.133 ± 0.00287 kcal/mol
same,excess molar enthalpy,"313.15 K, x1 = 0.2507",0.163 ± 0.00287 kcal/mol
same,excess molar enthalpy,"313.15 K, x1 = 0.2997",0.191 ± 0.00287 kcal/mol
same,excess molar enthalpy,"313.15 K, x1 = 0.3507",0.217 ± 0.00311 kcal/mol
same,excess molar enthalpy,"313.15 K, x1 = 0.3998",0.238 ± 0.00311 kcal/mol
same,excess molar enthalpy,"313.15 K, x1 = 0.4506",0.258 ± 0.00311 kcal/mol
same,excess molar enthalpy,"313.15 K, x1 = 0.5013",0.273 ± 0.00335 kcal/mol
same,excess molar enthalpy,"313.15 K, x1 = 0.5495",0.285 ± 0.00335 kcal/mol
same,excess molar enthalpy,"313.15 K, x1 = 0.5995",0.293 ± 0.00335 kcal/mol
same,excess molar enthalpy,"313.15 K, x1 = 0.651",0.297 ± 0.00335 kcal/mol
same,excess molar enthalpy,"313.15 K, x1 = 0.6998",0.296 ± 0.00335 kcal/mol
same,excess molar enthalpy,"313.15 K, x1 = 0.7501",0.288 ± 0.00335 kcal/mol
same,excess molar enthalpy,"313.15 K, x1 = 0.7996",0.273 ± 0.00335 kcal/mol
same,excess molar enthalpy,"313.15 K, x1 = 0.8507",0.248 ± 0.00335 kcal/mol
same,excess molar enthalpy,"313.15 K, x1 = 0.9007",0.21 ± 0.00335 kcal/mol
same,excess molar enthalpy,"313.15 K, x1 = 0.9496",0.143 ± 0.00335 kcal/mol
c1ccccc1 [benzene] + CCCO,excess molar enthalpy,"298.15 K, x1 = 0.0492",0.0253 ± 0.00263 kcal/mol
same,excess molar enthalpy,"298.15 K, x1 = 0.0993",0.0523 ± 0.00263 kcal/mol
same,excess molar enthalpy,"298.15 K, x1 = 0.1503",0.0798 ± 0.00263 kcal/mol
same,excess molar enthalpy,"298.15 K, x1 = 0.2006",0.106 ± 0.00263 kcal/mol
same,excess molar enthalpy,"298.15 K, x1 = 0.2499",0.132 ± 0.00287 kcal/mol
same,excess molar enthalpy,"298.15 K, x1 = 0.3001",0.156 ± 0.00287 kcal/mol
same,excess molar enthalpy,"298.15 K, x1 = 0.3493",0.178 ± 0.00287 kcal/mol
same,excess molar enthalpy,"298.15 K, x1 = 0.3994",0.198 ± 0.00287 kcal/mol
same,excess molar enthalpy,"298.15 K, x1 = 0.4505",0.217 ± 0.00311 kcal/mol
same,excess molar enthalpy,"298.15 K, x1 = 0.5004",0.231 ± 0.00311 kcal/mol
same,excess molar enthalpy,"298.15 K, x1 = 0.5491",0.243 ± 0.00311 kcal/mol
same,excess molar enthalpy,"298.15 K, x1 = 0.5987",0.251 ± 0.00311 kcal/mol
same,excess molar enthalpy,"298.15 K, x1 = 0.6492",0.256 ± 0.00311 kcal/mol
same,excess molar enthalpy,"298.15 K, x1 = 0.7006",0.255 ± 0.00311 kcal/mol
same,excess molar enthalpy,"298.15 K, x1 = 0.7507",0.249 ± 0.00311 kcal/mol
same,excess molar enthalpy,"298.15 K, x1 = 0.7994",0.237 ± 0.00311 kcal/mol
same,excess molar enthalpy,"298.15 K, x1 = 0.8489",0.217 ± 0.00311 kcal/mol
same,excess molar enthalpy,"298.15 K, x1 = 0.8992",0.184 ± 0.00311 kcal/mol
same,excess molar enthalpy,"298.15 K, x1 = 0.9504",0.128 ± 0.00311 kcal/mol
same,excess molar enthalpy,"313.15 K, x1 = 0.0493",0.0325 ± 0.00263 kcal/mol
same,excess molar enthalpy,"313.15 K, x1 = 0.0995",0.0662 ± 0.00263 kcal/mol
same,excess molar enthalpy,"313.15 K, x1 = 0.1506",0.1 ± 0.00287 kcal/mol
same,excess molar enthalpy,"313.15 K, x1 = 0.2009",0.133 ± 0.00287 kcal/mol
same,excess molar enthalpy,"313.15 K, x1 = 0.2503",0.162 ± 0.00287 kcal/mol
same,excess molar enthalpy,"313.15 K, x1 = 0.3005",0.191 ± 0.00287 kcal/mol
same,excess molar enthalpy,"313.15 K, x1 = 0.3498",0.217 ± 0.00311 kcal/mol
same,excess molar enthalpy,"313.15 K, x1 = 0.3999",0.24 ± 0.00311 kcal/mol
same,excess molar enthalpy,"313.15 K, x1 = 0.451",0.262 ± 0.00311 kcal/mol
same,excess molar enthalpy,"313.15 K, x1 = 0.5009",0.278 ± 0.00335 kcal/mol
same,excess molar enthalpy,"313.15 K, x1 = 0.5497",0.291 ± 0.00335 kcal/mol
same,excess molar enthalpy,"313.15 K, x1 = 0.5993",0.299 ± 0.00335 kcal/mol
same,excess molar enthalpy,"313.15 K, x1 = 0.6497",0.303 ± 0.00335 kcal/mol
same,excess molar enthalpy,"313.15 K, x1 = 0.701",0.3 ± 0.00335 kcal/mol
same,excess molar enthalpy,"313.15 K, x1 = 0.7511",0.291 ± 0.00335 kcal/mol
same,excess molar enthalpy,"313.15 K, x1 = 0.7997",0.276 ± 0.00335 kcal/mol
same,excess molar enthalpy,"313.15 K, x1 = 0.8491",0.25 ± 0.00335 kcal/mol
same,excess molar enthalpy,"313.15 K, x1 = 0.8994",0.209 ± 0.00335 kcal/mol
same,excess molar enthalpy,"313.15 K, x1 = 0.9505",0.14 ± 0.00335 kcal/mol
